From paper PMC8351955, “Targeting Mycobacterium tuberculosis response to environmental cues for the development of effective antitubercular drugs” (PLoS Biology, 2021)
Read-outs that look alike come from different tables or passages of the source.

Key:
[1] = test system: CDC1551(rv2390c′::GFP) reporter Mtb strain, response to high [Cl−]; experiment: microbe, parasite or virus in culture; assay type: cell-based, Mycobacterium tuberculosis; conditions: Mycobacterium tuberculosis, 144 h; for activity at 20 µM: read-out: rv2390c'::GFP validation assay NPA% at 20 µM compound
[2] = test system: CDC1551(rv1405c′::GFP) reporter Mtb strain; experiment: microbe, parasite or virus in culture; assay type: cell-based, Mycobacterium tuberculosis; conditions: Mycobacterium tuberculosis; for activity at 10 µM: read-out: rv1405c'::GFP secondary assay NPA% at 10 µM compound; for activity at 20 µM: read-out: rv1405c'::GFP secondary assay NPA% at 20 µM compound
[3] = pH 6.4, […], DMSO positive control = 100%, read-out: Primary screen rv2390c'::GFP NPA%
[4] = 10 µM, pH 6.4, 250 mM NaCl, 6 days, read-out: rv2390c'::GFP validation assay NPA% at 10 µM compound

SMILES | activity at 10 µM [1, 3] | activity at 10 µM [1, 4] | activity at 20 µM ([1]; pH 6.4, 250 mM NaCl, 6 days) | activity at 10 µM [2] | activity at 20 µM [2]
CC(CCc1ccccc1)Nc1ncnc(-n2cccn2)c1N (stereo not drawn) [RU-0203332, CC(CCC1=CC=CC=C1)NC1=C(N)C(=NC=N1)N1C=CC=N1] | 151% | 100 ± 2.9% | 135 ± 16.1% | 117 ± 5.3% | 182 ± 8.5%
CCCc1ccccc1NC(N)=S [RU-0214166, CCCC1=C(NC(N)=S)C=CC=C1] | 34.1% | 56.8 ± 5.8% | 31.6 ± 12.3% | 61.8 ± 0.5% | 111 ± 15.1%
CC(C)c1cc(C(=O)NC2CCN(c3cccc(F)c3)CC2)n[nH]1 [RU-0278450, CC(C)C1=CC(=NN1)C(=O)NC1CCN(CC1)C1=CC(F)=CC=C1] | 175% | 118 ± 5.7% | 231 ± 1% | 92.3 ± 5.3% | 146 ± 5.1%
COc1ccc2c(C)cc(Nc3cc(F)ccc3C)nc2c1 [RU-0202188, COC1=CC2=C(C=C1)C(C)=CC(NC1=C(C)C=CC(F)=C1)=N2] | 159% | 128 ± 12.2% | 132 ± 17.8% | 206 ± 10.4% | 256 ± 16.6%
CCCC(C)c1nnc(NC(=O)c2nnc3nc(C)cc(C)n23)s1 (stereo not drawn) [RU-0225311, CCCC(C)C1=NN=C(NC(=O)C2=NN=C3N=C(C)C=C(C)N23)S1] | 155% | 116 ± 6.7% | 195 ± 6.5% | 110 ± 9.7% | 137 ± 16.9%
Cc1csc(/C(C#N)=C\c2ccc(C3CC3C)o2)n1 (stereo not drawn) [RU-0200280, CC1CC1C1=CC=C(O1)\C=C(\C#N)C1=NC(C)=CS1] | 277% | 144 ± 5.5% | 248 ± 21.2% | 399 ± 31.8% | 
CC(CNC(=O)Nc1cccc(-c2noc(=O)[nH]2)c1)c1ccccc1 (stereo not drawn) [RU-0182956, CC(CNC(=O)NC1=CC(=CC=C1)C1=NOC(=O)N1)C1=CC=CC=C1] | 48.1% | 66.7 ± 2.4% | 39 ± 3.5% | 38.3 ± 1.6% | 9.7 ± 1.2%
Cc1ccc2cc(S(=O)(=O)NCCn3nc(C)c(Cl)c3C)ccc2c1 [RU-0211306, CC1=NN(CCNS(=O)(=O)C2=CC3=C(C=C2)C=C(C)C=C3)C(C)=C1Cl] | 154% | 122 ± 3.2% | 156 ± 2.1% | 84.4 ± 8.8% | 99.4 ± 9.4%
CCc1nnc(NC(=O)c2sc(CC(C)C)nc2C)s1 [RU-0274734, CCC1=NN=C(NC(=O)C2=C(C)N=C(CC(C)C)S2)S1] | 170% | 150.7 ± 1.2% | 178 ± 7.2% | 97.2 ± 4.2% | 102 ± 3.9%
CC1(C)CC2CC(C)(CN2CC(O)COc2ccc(F)cc2Cl)C1 (stereo not drawn) [RU-0218667, CC12CC(CC(C)(C)C1)N(CC(O)COC1=C(Cl)C=C(F)C=C1)C2] | 154% | 118 ± 1.5% | 173 ± 5.5% | 129 ± 4.5% | 233 ± 4.2%
O=C(Cc1ccc2c(c1)CCC2)NCc1ccccc1F [RU-0268882, FC1=C(CNC(=O)CC2=CC3=C(CCC3)C=C2)C=CC=C1] | 175% | 130 ± 7% | 176 ± 16.5% | 103 ± 10.5% | 105 ± 20.7%
CCCn1ncc(C(=O)NC(C)C(=O)Nc2ccc(F)cc2C)c1C (stereo not drawn) [RU-0232065, CCCN1N=CC(C(=O)NC(C)C(=O)NC2=CC=C(F)C=C2C)=C1C] | 154% | 119 ± 6.6% | 147 ± 14.2% | 91.3 ± 9.4% | 98.3 ± 13%
Cc1ccc(NC(=O)c2cc(C)n(C3CC3)c2C)c(C)c1 [RU-0276186, CC1=CC(C(=O)NC2=C(C)C=C(C)C=C2)=C(C)N1C1CC1] | 159% | 105 ± 5.3% | 157 ± 13.8% | 95.4 ± 4.5% | 123 ± 13.3%
CC(C)c1cc(C2CCN(C(=O)c3nc(C(C)C)cs3)CC2)[nH]n1 [RU-0259583, CC(C)C1=CSC(=N1)C(=O)N1CCC(CC1)C1=CC(=NN1)C(C)C] | 156% | 103 ± 2.6% | 130 ± 8.6% | 81.6 ± 6.6% | 99.6 ± 21.4%
